Assay results published in US20060019987A1, “Methods and compositions for inhibiting, destroying, and/or inactivating viruses” (priority 2004, published 2006).

How the values were obtained:
RSV (Long strain) = experiment: Virucidal efficacy: syncytia formation by pretreated RSV in Hep-2 cell monolayers; assay type: cell-based; conditions: RSV pretreated 1 h at 35° C.; Hep-2 cells; two experiments (starting 10^7 PFU and 109 PFU); 0.05% CPC
Method: (§1) The experiments included human (hAd) serotypes of species B (hAd3), C (hAd5), and E (hAd4) and the long strain of RSV, representative of A. Two independent experiments were carried out for each virus.
One hundred microliters (μl) of each virus suspension containing 5×10^6 PFU or 5×10^5 PFU were subsequently used to infect monolayers of Hep-2 cells in quadruplicate in 24-well plates. […] Viral cytopathic effect was examined at 2 days post infection. One hundred μl of a dilution 1:10 of the original treated samples containing […] were used to infect additional wells (Block C: PBS-treated 1:10; E: SinoFresh® product-treated 1:10; G: CPC-treated 1:10).
A second independent experiment was carried out with a starting concentration of 10^9 PFU.

hAd4 (RI-67 strain) = experiment: Virucidal efficacy: cytopathic effect of pretreated hAd4 in A549 cell monolayers; assay type: cell-based; conditions: hAd4 pretreated 1 h at 35° C.; 10^7 PFU (and 1:10 dilution); A549 lung epithelial cells; 2 days post infection; vs PBS-treated virus (marked CPE)
Method: as §1
Phosphate buffered saline (PBS) pretreatment of virus suspensions was used as a control.
After the 1-h incubation, 100 μl of the treated virus containing a total of 10^7 to 10^6 plaque forming units (PFU) of virus or their corresponding 1:10 or 1:100 dilutions were used to infect monolayers of A549 lung epithelial cells in quadruplicate 24-well plates. […] Viral cytopathic effect was examined at 2 days post infection. One hundred μl of a dilution 1:10 of the original treated samples containing 10^6 PFU were used to infect additional wells. (C: PBS-treated 1:10; E: SinoFresh® product-treated 1:10; G: CPC-treated 1:10).

CCCCCCCCCCCCCCCC[n+]1ccccc1 [CPC, 1-hexa-decyl pyridinium chloride]
syncytia formation in infected monolayers (RSV (Long strain)): prevented syncytia formation
development of cytopathic effect (CPE) (hAd4 (RI-67 strain)): no obvious CPE
